Results taken from PubChem BioAssay (NCI).
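The compound was tested at five concentrations on cells cultured in 96-well plates, with a 48-hour exposure period. TGI denotes the concentration required for complete inhibition of growth.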

Experiments:
Test in all cases: NCI anticancer screen, dose series, 48 h
[1] = tested on: OVCAR-3 ovarian
[2] = tested on: T-47D breast
[3] = tested on: U251 CNS
[4] = tested on: SK-OV-3 ovarian
[5] = tested on: SNB-75 CNS
[6] = tested on: CAKI-1 renal
[7] = tested on: SK-MEL-28 melanoma
[8] = tested on: TK-10 renal
[9] = tested on: HCC-2998 colon
[10] = tested on: SNB-19 CNS
[11] = tested on: SF-539 CNS
[12] = tested on: RPMI-8226 leukemia
[13] = tested on: LOX IMVI melanoma
[14] = tested on: SF-295 CNS
[15] = tested on: UACC-257 melanoma
[16] = tested on: SN12C renal
[17] = tested on: IGROV1 ovarian
[18] = tested on: 786-0 renal
[19] = tested on: SF-268 CNS
[20] = tested on: ACHN renal

Row | Compound | TGI [1] [µM] | TGI [2] [µM] | TGI [3] [µM] | TGI [4] [µM] | TGI [5] [µM] | TGI [6] [µM] | TGI [7] [µM] | TGI [8] [µM] | TGI [9] [µM] | TGI [10] [µM] | TGI [11] [µM] | TGI [12] [µM] | TGI [13] [µM] | TGI [14] [µM] | TGI [15] [µM] | TGI [16] [µM] | TGI [17] [µM] | TGI [18] [µM] | TGI [19] [µM] | TGI [20] [µM]
1 | COc1cc(C)c(/C=C/C(=O)N2C(=O)OC[C@@H]2c2ccccc2)c(C)c1 | > 100 | 74.1 | > 100 | > 100 | > 100 | > 100 | > 100 | > 100 | > 100 | > 100 | > 100 | > 100 | > 100 | > 100 | > 100 | > 100 | > 100 | > 100 | > 100 | > 100
2 | COc1cc(/C=C2\C[C@H]3[C@@H]4CC=C5C=C(N6CCCC6)CC[C@]5(C)[C@H]4CC[C@]3(C)C2=O)cc(OC)c1OC | 4.07 | 11.1 | 4.7 | 22.1 | 15.9 | 7.61 | 19.5 | 21.4 | 3.57 | 18.4 | 12.5 | > 28 | 2.87 | 7.04 | 9.48 | 12.1 | 3.83 | > 24.2 | 5.05 | 5.46
3 | COc1c(C)c2c(c(=O)c3c(C)cccc3n2C)c2c1c(=O)c1c(C)cccc1n2C | > 10 | > 10 | > 10 | > 10 | > 10 | > 10 | > 10 | > 10 | > 10 | > 10 | > 10 | > 10 | > 10 | > 10 | > 10 | > 10 | > 10 | > 10 | > 10 | > 10
4 | COC(=O)c1ccccc1CC1Cc2ccc3c(c2C1)CCC3 (stereo not given) | > 100 | > 100 | 85.1 | > 100 | > 100 | > 100 | > 100 | > 100 | 45.7 | > 100 | > 100 | 47.7 | 31.1 | > 100 | 28.6 | > 100 | > 100 | > 100 | > 100 | > 100
5 | O=c1[nH]/c(=C/c2ccc(OCc3ccccc3)cn2)c(=O)[nH]/c1=C/c1ccc([N+](=O)[O-])cc1 | > 100 | > 100 | > 100 | > 100 | 70.2 | > 73.1 | > 100 | > 100 | > 100 | > 100 | > 100 | > 100 | > 100 | > 100 | > 100 | > 100 | > 100 | > 100 | > 100 | > 100
6 | CC(C)(C)C(=O)C(C(=O)C(C)(C)C)C(=O)C(C)(C)C | > 100 | > 100 | > 100 | > 100 | > 100 | > 100 | > 100 | > 100 | > 100 | > 100 | > 100 | > 100 | > 100 | > 100 | > 100 | > 100 | > 100 | > 100 | > 100 | > 100
7 | COC(=O)C1(c2cc3ccccc3n2S(=O)(=O)c2ccccc2)CC2C=CC1NC2 (stereo not given) | 5.43 | 13.5 | 2.75 | 13.2 | 17.9 | 4.27 | 8.49 | 4.85 | 3.8 | 5.98 | 3.55 | 2.74 | 3.73 | 10.2 | 4.93 | 4.69 | 3.22 | 2.9 | > 20.2 | 3.82
8 | Cc1nc(Nc2ccccc2Cl)sc1C(=O)CC(=O)C(=O)Nc1c(Cl)cccc1Cl | 57.8 | 71.6 | 64.3 | > 100 | 88.6 | > 100 | 85.6 | > 100 | > 100 | > 100 | 83 | > 100 | 85.8 | > 100 | > 100 | > 100 | 63.5 | 66 | > 100 | > 100
